The text below walks through data of patent US20240343720A1, “AAK1 INHIBITOR AND USE THEREOF” (Xizang Haisco Pharmaceutical Co., Ltd., priority 2021, published 2024).

Data set [1] concerns the target AAK1 (Homo sapiens (Human), UniProt Q2M2I8). As to the kind of experiment: In vitro AAK1 enzyme activity assay (ADP-Glo). The format is biochemical. To be noted: read-out: Inhibitory activity against AAK1 IC50. As for the experimental part:
Compound stock solution (concentration: 10 mM, dissolved in DMSO) was diluted with DMSO to 0.2 mM and then diluted with DMSO in 5-fold gradient to obtain compound solutions with 10 concentrations. Subsequently, the compound solutions with different concentrations were diluted 50-fold in 1×kinase reaction buffer (containing 40 mM Tris, 20 mM MgCl2, 0.1% BSA and 0.5 mM DTT) for later use. AAK1 (Signalchem, Cat #A01-11G-10) was diluted with 1×kinase reaction buffer to 2-fold the final concentration (final concentrations: 30 nM and 28 nM). AAK1 was added to a 384-well white plate at 2 μL/well, and the compounds were then added at 1 μL/well. The plate was sealed with a plate-sealing film, centrifuged at 1000 rpm for 30 seconds and then placed at room temperature for 10 minutes. A mixed solution of ATP (Promega, Cat #V914B) and substrate Micro2 (GenScript, Cat #PE0890) was formulated at 4-fold the final concentration (for AAK1, the corresponding final concentrations of ATP: 15 μM and 5 μM, and the corresponding final concentration of Micro2: 0.1 mg/mL). To the reaction plate was added the mixed solution of ATP and the substrate at 1 μL/well. The plate was sealed with a plate-sealing film and centrifuged at 1000 rpm for 30 seconds. The reaction was carried out at room temperature for 60 minutes (AAK1). ADP-Glo (Promega, Cat #V9102) was transferred to the 384-well plate at 4 μL/well and centrifugation was carried out at 1000 rpm for 1 minute. The mixture was incubated at 25° C. for 40 minutes. A detection solution was transferred to the 384-well plate at 8 μL/well and centrifugation was carried out at 1000 rpm for 1 minute. The resulting mixture was incubated at 25° C. for 40 minutes. The RLU (Relative luminescence unit) signal values were read using a Biotek multilable microplate reader and the percent inhibition was calculated according to the following formula: [1−(LUMcompound−LUMpositive control)/(LUMnegative control−LUMpositive control)]×100. IC50 values were calculated using Graphpad 7.0 software using a four-parameter non-linear fit equation.
Background: In ADP-Glo the light output rises with the ADP produced.

Data set [2] in a line: Pharmacokinetic test in beagle dogs. The format is in vivo. To be noted: for AUC(0-t) / clearance / Vd: male, dog, plasma; for Vd: read-out: Vdss. As for the experimental part: Experimental animals: male beagle dogs, about 8-11 kg, 6 beagle dogs/compound, purchased from Beijing Marshall Biotechnology Co., Ltd.
Experimental method: on the day of the experiment, 12 beagle dogs were randomly grouped according to their body weights. the animals were fasted with water available for 12 to 14 h one day before the administration, and were fed 4 h after the administration; and the administration was performed according to Table 2.
Before and after the administration, 1 ml of blood was taken from the jugular veins or limb veins, and placed in an EDTAK2 centrifuge tube. Centrifugation was performed at 5000 rpm at 4° C. for 10 min, and plasma was collected. Blood sampling time points for both the LX9211 intravenous administration group and intragastric administration group include: 0 min, 5 min, 15 min, 30 min, 1 h, 2 h, 4 h, 6 h, 8 h, 10 h, 12 h, and 24 h, and blood sampling time points for both the compound 19 intravenous administration group and intragastric administration group include: 0 min, 5 min, 15 min, 30 min, 1 h, 2 h, 4 h, 6 h, 8 h, 10 h, 12 h, 24 h, and 48 h. Before analysis and detection, all samples were stored at −80° C. The samples were analysed quantitatively by LC-MS/MS.

In data set [3] the target is hERG potassium ion channel (Homo sapiens (Human), UniProt Q12809). As to the kind of experiment: Test for hERG potassium ion channel (manual whole cell patch-clamp). The format is cell-based. Particulars: for IC50: CHO cells stably expressing hERG, read-out: IC50 (hERG potassium channel current); for inhibition at 40 µM: human, CHO cells stably expressing hERG potassium channel, read-out: Inhibition rate at the highest concentration tested (hERG potassium channel current). The text has this: Experimental platform: electrophysiological manual patch-clamp system
hERG potassium ion channel, sequence (Q12809 whole entry): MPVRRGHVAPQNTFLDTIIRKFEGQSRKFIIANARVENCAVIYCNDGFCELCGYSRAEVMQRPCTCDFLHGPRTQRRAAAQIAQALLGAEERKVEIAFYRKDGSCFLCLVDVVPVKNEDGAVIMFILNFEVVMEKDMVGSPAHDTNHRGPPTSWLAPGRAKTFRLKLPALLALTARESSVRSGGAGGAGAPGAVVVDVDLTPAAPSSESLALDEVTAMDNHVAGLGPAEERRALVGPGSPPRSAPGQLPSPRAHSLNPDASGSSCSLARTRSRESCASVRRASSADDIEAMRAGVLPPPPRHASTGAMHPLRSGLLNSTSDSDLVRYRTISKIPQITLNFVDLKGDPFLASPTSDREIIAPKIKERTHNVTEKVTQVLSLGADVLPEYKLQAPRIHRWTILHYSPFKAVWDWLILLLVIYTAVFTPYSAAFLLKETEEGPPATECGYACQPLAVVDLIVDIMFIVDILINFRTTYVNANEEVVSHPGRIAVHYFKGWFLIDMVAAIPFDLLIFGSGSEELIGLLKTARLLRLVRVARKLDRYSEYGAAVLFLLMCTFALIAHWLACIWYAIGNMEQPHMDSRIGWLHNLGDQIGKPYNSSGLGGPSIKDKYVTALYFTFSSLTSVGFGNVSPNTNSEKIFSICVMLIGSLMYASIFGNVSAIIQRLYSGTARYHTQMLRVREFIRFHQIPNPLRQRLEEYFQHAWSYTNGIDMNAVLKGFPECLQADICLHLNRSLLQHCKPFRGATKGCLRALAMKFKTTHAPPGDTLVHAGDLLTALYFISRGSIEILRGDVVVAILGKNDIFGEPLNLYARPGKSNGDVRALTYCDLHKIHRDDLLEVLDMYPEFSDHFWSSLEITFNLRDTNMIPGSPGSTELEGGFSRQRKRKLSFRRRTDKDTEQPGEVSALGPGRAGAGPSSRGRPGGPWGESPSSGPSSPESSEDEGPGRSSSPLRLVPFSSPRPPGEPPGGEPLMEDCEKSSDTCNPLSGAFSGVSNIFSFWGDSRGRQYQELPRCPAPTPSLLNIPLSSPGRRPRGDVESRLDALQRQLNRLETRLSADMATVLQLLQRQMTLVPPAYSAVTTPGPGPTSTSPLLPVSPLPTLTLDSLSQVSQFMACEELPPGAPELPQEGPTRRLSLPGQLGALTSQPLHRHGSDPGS
Cell line: Chinese hamster ovary (CHO) cell lines stably expressing hERG potassium ion channel
Experimental method: In CHO (Chinese Hamster Ovary) cells stably expressing hERG potassium channel, whole cell patch-clamp technique was used to record hERG potassium channel current at room temperature. The glass microelectrode was made of a glass electrode blank (BF150-86-10, Sutter) by a puller. The tip resistance after filling the liquid in the electrode was about 2-5 MΩ. The glass microelectrode can be connected to the patch-clamp amplifier by inserting the glass microelectrode into an amplifier probe. The clamping voltage and data recording were controlled and recorded by the pClamp 10 software through a computer. The sampling frequency was 10 kHz, and the filtering frequency was 2 kHz. After the whole cell records were obtained, the cells were clamped at −80 mV, and the step voltage that induced the hERG potassium current (IhERG) was depolarized from −80 mV to +20 mV for 2 s, then repolarized to −50 mV, and returned to −80 mV after 1 s. This voltage stimulation was given every 10 s, and the administration process was started after the hERG potassium current was confirmed to be stable (at least 1 minute). The compound was administered for at least 1 minute at each test concentration, and at least 2 cells (n≥2) were tested at each concentration.
Data processing: Data analysis processing was carried out by using pClamp 10, GraphPad Prism 5 and Excel software. The inhibition degree of hERG potassium current (peak value of hERG tail current induced at −50 mV) at different compound concentrations was calculated by the following formula: […]
wherein, Inhibition % represents the percentage of inhibition of hERG potassium current by the compound, and I and Io represent the amplitude of hERG potassium current after and before dosing, respectively.
Compound IC50 was calculated using GraphPad Prism 5 software by fitting according to the following equation: […]
Among the equation, X represents the Log value of the tested concentration of the test sample, Y represents the inhibition percentage at the corresponding concentration, and Bottom and Top represent the minimum and maximum inhibition percentage, respectively.

Data set [4] can be described thus: Mouse brain/blood ratio test. The format is in vivo. Particulars: ICR mice, i.g. (10 mg/kg); for Kp / AUC(0-t): male, mouse, po; for Kp: brain/plasma; for AUC(0-t): plasma, read-out: Plasma AUC0-t. As for the experimental part:
5.1 Experimental animals: Male ICR mice, 20-25 g, 9 mice/compound. Purchased from Chengdu Ddossy Experimental Animals Co., Ltd.
5.2 Experimental design: on the day of the experiment, 18 ICR mice were randomly grouped according to their body weights. The animals were fasted with water available for 12 to 14 h one day before the administration, and were fed 4 h after the administration;
After intragastric administration, whole blood and brain tissue were collected at 0.5 h, 4 h and 24 h, and the whole blood was centrifuged to separate the plasma. The brain tissue was rinsed with cold physiological saline to remove the residual blood on the surface, drained out and then homogenized. Before analysis and detection, all samples were stored at −80° C. The samples were analyzed quantitatively by LC-MS/MS.

Data set [5] has as its system SNL-induced mouse model of neuropathic pain. As to the kind of experiment: Spinal nerve ligation (SNL)-induced mouse model of neuropathic pain, mechanical pain threshold (MPT). Particulars: for Time at which analgesic efficacy reached the peak after the administration / Effect on pain threshold (MPT) of mice after SNL modelling: 10 mg/kg intragastrically, single administration; for Effect on pain threshold (MPT) of mice after SNL modelling: 1, 3 and 6 hours after administration. The format is in vivo, C57BL/6J mice. From the text:
Male C57BL/6J mice (8 weeks old) purchased from Jinan Pengyue Experimental Animal Breeding Co., Ltd. were adaptively raised for one week and then the models were established. The specific establishment method comprises the following steps: • 1) disinfecting the surgical instrument and ligature; • 2) anesthetizing the mice with isoflurane and then placing the mice on the operating table in the prone position; • 3) shaving the fur near the hip bones of the mice and preparing the skin, and making an incision of about 2 cm along the spine; • 4) isolating the fascia along the spine, performing blunt dissection of the muscles, and exposing the transverse process of L5; • 5) carefully cutting the transverse process of L5 with forceps and exposing the L5 spinal nerve; • 6) carefully isolating the L5 nerve with a glass dissecting needle, and ligating the L5 nerve with a 5-0 ligature; and • 7) suturing the muscles and skin and disinfecting same with iodophor.
The mice that were unsuccessful in modeling were eliminated the next day after modeling (marker for successful modeling: mice with their hind paws curled up). After modeling, the mice were stroked for 3 to 5 minutes every day to ensure that the animals were familiar with the experimenter, and then the mice were placed on a metal pain measuring frame for 40 to 60 minutes of adaptation. After 3 days of acclimatization, Von Frey filaments (Aesthesio®; 0.16 g, 0.4 g, 0.6 g, 1.0 g, 1.4 g and 2.0 g) were used to test the pre-administration baseline values of the animals (Ascending testing approach). Each animal was tested twice and average values were taken, with intervals of at least 5 minutes. The animals were grouped according to the baseline values (10 animals per group). After the grouping, LX-9211 (1 and 10 mg/kg), compound 3 (1 and 10 mg/kg) or vehicle (40% PEG-400+10% ethanol+15% Tween 80+35% physiological saline) were administered intragastrically. The mice were tested for the mechanical pain threshold (MPT) at 1, 3 and 6 hours after the administration. Time-MPT curve was plotted using GraphPad 8.3.0, and statistical analysis was performed.

SMILES strings stand for the structures.

As usually defined, the IC50 is the midpoint of a concentration-inhibition curve. Usually clearance stands for the volume of plasma or blood freed of the substance per unit of time. High values mean efficient removal, low ones inefficient removal. As a reminder, the Kp is the ratio of the level in a tissue or fluid to that in plasma or blood.

AAK1, sequence (Q2M2I8 27-365): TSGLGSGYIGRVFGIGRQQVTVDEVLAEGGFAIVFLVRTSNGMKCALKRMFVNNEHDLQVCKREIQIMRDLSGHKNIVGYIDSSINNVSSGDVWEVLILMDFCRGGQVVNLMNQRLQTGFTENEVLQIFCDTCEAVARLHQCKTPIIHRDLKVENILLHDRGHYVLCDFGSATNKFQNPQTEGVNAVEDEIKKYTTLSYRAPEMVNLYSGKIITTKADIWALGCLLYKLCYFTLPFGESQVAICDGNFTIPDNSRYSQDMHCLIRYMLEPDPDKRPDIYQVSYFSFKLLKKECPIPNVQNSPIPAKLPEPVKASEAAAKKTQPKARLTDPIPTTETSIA

Take `COC(=O)Nc1cc(-c2ccc(OC[C@@](C)(N)CC(C)(C)F)c(C(F)F)n2)ccn1` [Compound 19, Methyl (S)-(5-((2-amino-4-fluoro-2,4-dimethylpentyl)oxy)-6-(difluoromethyl) [2,4′-bipyridin]-2′-yl)carbamate]: the IC50 in data set [1] came to 37.7 nM. The F in data set [2] (i.g. (3 mg/kg)) turned out to be 113 ± 6.9%. Also, in data set [2] (iv, i.v. (1 mg/kg)), the AUC(0-t) was 398 ± 94 ng·h/mL, the clearance turned out to be 39.8 ± 10 mL/min/kg and the Vd stood at 23.6 ± 3.8 L/kg. Moreover, the AUC(0-t) in data set [2] (po, i.g. (3 mg/kg)) came out at 1350 ± 83 ng·h/mL. Further, in data set [3], the IC50 turned out to be 24100 nM and the inhibition at 40 µM is 68.9 ± 1.8%.

`C=C(C)C[C@](C)(N)COc1ccc(-c2ccnc(C(F)F)c2)nc1C(F)F` [Compound 3, (S)-1-((2′,6-bis(difluoromethyl)-[2,4′-bipyridin]-5-yl)oxy)-2,4-dimethylpent-4-en-2-amine]: the IC50 in data set [1] is 10.9 nM. In data set [4], the “Brain tissue AUC0-t” value worked out at 36853 ng·h/g, the Kp is 64.5 and the AUC(0-t) amounted to 572 ng·h/mL. Moreover, in data set [5], the “Time at which analgesic efficacy reached the peak after the administration” value was found to be 3 h and the “Effect on pain threshold (MPT) of mice after SNL modelling” value is on record as “effectively increased the pain threshold”. Further, the “Analgesic efficacy compared with LX-9211” value in data set [5] (10 mg/kg, at 3 and 6 hours after the administration) is given as “better efficacy than LX-9211”. In data set [3], the IC50 came to 8750 nM and the inhibition at 40 µM amounted to 86.6 ± 1.77%.

In the case of `CC(C)C[C@](C)(N)COc1ccc(-c2ccnc(C(F)F)c2)nc1C(F)F` [LX-9211, reference compound], in data set [4], the “Brain tissue AUC0-t” value worked out at 110424 ng·h/g, the Kp is 16.6 and the AUC(0-t) was 6640 ng·h/mL. In data set [5], the “Time at which analgesic efficacy reached the peak after the administration” value worked out at 1 h and the “Effect on pain threshold (MPT) of mice after SNL modelling” value is reported as “effectively increased the pain threshold”. This compound returned a F in data set [2] (i.g. (3 mg/kg)) of 22.2 ± 8.1%. In data set [2] (iv, i.v. (1 mg/kg)), the AUC(0-t) turned out to be 751 ± 204 ng·h/mL, the clearance is 22.2 ± 7.7 mL/min/kg and the Vd worked out at 9.08 ± 1.4 L/kg. In data set [2] (po, i.g. (3 mg/kg)), this compound registered an AUC(0-t) of 500 ± 183 ng·h/mL. In addition, in data set [3], the IC50 is 1820 nM and the inhibition at 40 µM was found to be 102 ± 4.08%.
